Experimental data as given in BigSolDB 2.1.

## CN1CC(=O)N2[C@H](c3ccc4c(c3)OCO4)c3[nH]c4ccccc4c3C[C@@H]2C1=O
In transcutol, 298.15 K
  solubility (mole fraction): 0.00876
In transcutol, 303.15 K
  solubility (mole fraction): 0.00973
In transcutol, 308.15 K
  solubility (mole fraction): 0.0107
In transcutol, 313.15 K
  solubility (mole fraction): 0.0119
In transcutol, 318.15 K
  solubility (mole fraction): 0.0133
In transcutol, 323.15 K
  solubility (mole fraction): 0.0149
In transcutol, 328.15 K
  solubility (mole fraction): 0.0166
In transcutol, 333.15 K
  solubility (mole fraction): 0.0182
In water, 298.15 K
  solubility (mole fraction): 5.74e-07
In water, 303.15 K
  solubility (mole fraction): 7.59e-07
In water, 308.15 K
  solubility (mole fraction): 1.02e-06
In water, 313.15 K
  solubility (mole fraction): 1.34e-06
In water, 318.15 K
  solubility (mole fraction): 1.75e-06
In water, 323.15 K
  solubility (mole fraction): 2.26e-06
In water, 328.15 K
  solubility (mole fraction): 2.77e-06
In water, 333.15 K
  solubility (mole fraction): 3.45e-06
